Results: PMC3565340, “Crystal Structure of Dimeric Flavodoxin from Desulfovibrio gigas Suggests a Potential Binding Region for the Electron-Transferring Partner” (International Journal of Molecular Sciences, 2013)

Target: T1, Fld (flavodoxin from Desulfovibrio gigas) (Megalodesulfovibrio gigas, UniProt Q01095)
T1 construct: native, purified from anaerobically grown D. gigas cells; untagged; 146 residues, 15 kDa; residues 2-146 modelled; homodimer
Assay: X-ray crystal structure of the complex, […] Å
Assay type: binding
Details: non-covalently bound native cofactor, co-purified; crystals at pH 6.5 (bis-Tris, PEG550, CaCl2); semiquinone-like state

T1 sequence (Q01095 whole entry, the tested form may be a part): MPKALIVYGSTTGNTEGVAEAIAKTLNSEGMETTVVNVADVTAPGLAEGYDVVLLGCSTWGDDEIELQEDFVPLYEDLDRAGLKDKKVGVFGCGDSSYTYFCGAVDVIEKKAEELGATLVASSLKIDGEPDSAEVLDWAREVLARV

Compound: Cc1cc2nc3c(=O)[nH]c(=O)nc-3n(C[C@H](O)[C@H](O)[C@H](O)COP(=O)(O)O)c2cc1C [FMN, flavin mononucleotide]
- X-ray crystal structure of the complex, 1.3 Å: the position of FMN was well defined by the electron density
